Measured values reported in patent US9260466B2, “Use of a flavanol glycoside for suppressing activation of stellate cells” (Hong Kong Baptist University, priority 2013, dated 2016).
Converted amounts (≈) assume the structure as drawn.

Tests used:
Format in all cases: cell-based, rat
LTC-14 cells [1] = test: MTT cell proliferation assay; settings: Eruberin A in the range of 0 to 20 μg/mL; results not shown
LTC-14 cells [2] = test: Real-time quantitative PCR of fibrotic mediator mRNA in TGF-β-stimulated LTC-14 cells; settings: TGF-β 5 ng/mL, 24 hours
Protocol: (§1) LTC-14 cells were cultured at 37° C. under a humidified condition of 95% air and 5% CO2 in Iscove's Modified Dulbecco's Medium (IMDM) supplemented with 10% fetal bovine serum (FBS). Cells used in all the experiment were among passages 9 to 25. LTC-14 cells were seeded at a density of 1×10^5/well in a 12-well plate, and incubated with recombinant TGF-β at 5 ng/mL and Eruberin A at 0, 0.5, 1, 5, 10 and 20 μg/mL in serum-free IMDM for 24 hours. Cells were then harvested for mRNA and protein extraction or subjected to Sirius Red/Fast Green staining or immunofluorescent staining.
mRNA samples from LTC-14 cells were extracted using Trizol reagent and subjected to a reverse transcription for cDNA synthesis. The synthesized cDNA was applied to amplifications with rat-specific primers for Tgf-β, Acta2, Col I-α1 and Fn1 in the ABI ViiA 7 real-time PCR system (Applied Biosystems) using 2×SYBR Green PCR Master Mix (Applied Biosystems). The Ct value of gene of interest was normalized to the endogenous reference Gapdh and presented as 2^−ΔΔCt using the comparative Ct method.

LTC-14 cells [3] = test: Sirius Red/Fast Green collagen staining of LTC-14 cells; settings: TGF-β 5 ng/mL, Eruberin A 10 μg/mL, p<0.05 vs TGF-β alone, FIG. 3
Protocol: as §1
Amounts of collagen and non-collagenous proteins in LTC-14 cells were measured using the Sirius Red/Fast Green collagen staining kit (Chondrex Inc.) according to the manufacturer's instruction.

NF-κB = test: Western blotting of nuclear translocation of NF-κB in LTC-14 cells; settings: compared to the TGF-β-treated control, FIG. 5
Protocol: as §1
(§2) Cytoplasmic and nuclear protein fractions of the LTC-14 cells were extracted using specific lysis buffers containing protease inhibitors. Cell lysates were loaded and separated by SDS-polyacrylamide gel electrophoresis. After wet electroblotting, proteins were transferred onto PVDF membranes (Bio-Rad), blocked with 5% non-fat milk, probed with antibodies and visualized by utilization of an ECL kit (GE Healthcare).

LTC-14 cells [4] = test: Immunofluorescent staining of α-SMA in TGF-β-stimulated LTC-14 cells; settings: TGF-β 5 ng/mL, FIG. 1
Protocol: as §1
For immunofluorescent staining of α-SMA, LTC-14 cells were seeded at a density of 1×10^5 onto the poly-L-lysine-coated cover slips in a 24-well plate, incubated with TGF-β at 5 ng/mL and Eruberin A at 0, 0.5, 1, 5, 10 and 20 μg/mL in serum-free IMDM for 24 hours. Cells were then fixed, blocked with 3% bovine serum albumin (BSA), probed with antibodies and mounted with fluorescence mounting medium containing 4′,6-diamidino-2-phenylindole (DAPI). Images were captured using the Nikon microscope and analyzed by the SPOT advanced software.

LTC-14 cells [5] = test: Western blotting of α-SMA and FN1 proteins in TGF-β-stimulated LTC-14 cells; settings: TGF-β 5 ng/mL, Eruberin A 0.5-20 μg/mL, 24 hours, serum-free medium, FIG. 2
Protocol: as §1, §2

[6] = Eruberin A 0.5-20 μg/mL, FIG. 4

In the case of `COc1ccc(C2C[C@@H]3OC4C(Oc5c(C)c(O)c(C)c(c53)O2)OC(CO)C(O)C4O)cc1` (stereo partly drawn) [Eruberin A], the “cytotoxicity (MTT cell proliferation assay)” value (LTC-14 cells [1]) is reported as “no notable cytotoxicity”, the IC50 (LTC-14 cells [2]; Rattus norvegicus, read-out: IC50 based on suppressive effects on the mRNA expression of α-SMA) is reported as ~10 mg/L (≈ 21.7 µM) and the “TGF-β-elevated mRNA expression level of Acta2” value (LTC-14 cells [2]; [6]) is reported as “significantly and dose-dependently suppressed”. For the same molecule, the “TGF-β-elevated mRNA expression level of Col I-α1” value (LTC-14 cells [2]; [6]) was “significantly and dose-dependently suppressed”, the “TGF-β-elevated mRNA expression level of Fn1” value (LTC-14 cells [2]; [6]) was “significantly and dose-dependently suppressed” and the “TGF-β-elevated mRNA expression level of Tgf-” value (LTC-14 cells [2]; [6]) was “significantly and dose-dependently suppressed”. For the same molecule, the “production of collagen (ratio of Sirius Red-stained collagenous to Fast Green-stained non-collagenous proteins)” value (LTC-14 cells [3]) was “notably suppressed”, the “nuclear translocation of NF-κB” value (NF-κB) was “significantly decreased” and the “TGF-β-stimulated α-SMA expression (immunofluorescence)” value (LTC-14 cells [4]; 24 hours) was “significantly attenuated”. For the same molecule, the “immunoreactivities of α-SMA” value (LTC-14 cells [4]; Eruberin A at 10 μg/mL) was “sufficiently suppress”, the “TGF-β-provoked elevation of FN1 protein” value (LTC-14 cells [5]) was “effectively attenuated” and the “TGF-β-provoked elevation of α-SMA protein” value (LTC-14 cells [5]) was “effectively attenuated”.
